Source: patent publication EP4644375A1, “SUBSTITUTED HYDROQUINOLINES FOR THE TREATMENT OF GLIOBLASTOMA MULTIFORME” (Molius Saglik Teknolojileri Anonim Sirketi, priority 2024, dated 2025)
“Also recorded” adds a separate entry of the source.

Tests used:
[1] = tested on: H2A.X; test: In vivo GBM rat model: double immunofluorescence examination; conditions: neurons, brain tissues, GBM rats, 30 mg/kg oral, 5 days
Description: (§1) In immunofluorescence examinations, primary antibody (NOP10 Cat no: ab134902 dilution ratio: 1/100) was applied to tissues and incubated according to the instructions. A fluorescent secondary antibody (FITC Cat No: ab6785 dilution Ratio: 1/1000 UK) was then applied and incubated in the dark for 45 minutes. Afterward, a second primary antibody (H2A.X Cat no: sc-517336 dilution ratio: 1/100) was applied and incubated according to the instructions. A different fluorescent secondary antibody (Texas Red Cat No: ab6719 dilution Ratio: 1/1000 UK) was applied and incubated in the dark for 45 minutes. Finally, DAPI (Cat no: D1306 dilution ratio: 1/200 UK) was applied to the sections for 5 minutes in the dark, followed by covering the tissues with coverslips. The stained tissues were examined under a fluorescence attachment-equipped microscope (Zeiss AXIO, Germany).
(§2) Individual body weights were manually calculated. Group mean body weights; group mean body weight changes and organ weights were also manually calculated without statistical analysis. To determine the density of positive staining from immunohistochemical and immunofluorescence staining images, five randomly selected areas were evaluated using ZEISS Zen Imaging Software. Data were statistically defined as mean and standard deviation (mean ± SD) for the percentage of the area. One-way ANOVA followed by the Tukey test was performed to compare immunoreactive cells and immune-positive stained areas with healthy controls. GraphPad Prism software was used for analysis.

[2] = tested on: NOP10; test: as above; conditions: neurons, brain tissues, GBM rats, 30 mg/kg oral, 5 days
Description: as §1, §2

[3] = tested on: GBM xenograft rat model; test: In vivo GBM rat model: histopathological examination of brain tissues; conditions: H&E, GBM rats, 30 mg/kg oral, 5 days
Description: (§3) An in Vivo study was performed to assess the therapeutic potential of TR-G002, TR-G045, TR-G053, TR-G066, TR-G071 and TR-G091 in the GBM xenograft rat model when administered orally by gavage for five consecutive days. 152 female rats of the Sprague Dawley strain were allocated to the study. Six groups of sixteen females were given dose of 30 mg/kg of the respective target compounds. […] The study design can be seen in Fig. 11 and Table 10.
(§4) Female Sprague Dawley rats (age: 6-8 weeks; weight: 255-310 g; ATADEM, Erzurum, Turkey) were utilized in the study. Rats underwent anaesthesia with 5% isoflurane, maintained at 2% isoflurane (1 L/min oxygen), and were positioned in a stereotactic frame for cell implantation (Stoelting Co., IL). […] A burr hole was drilled 1-mm anterior and 3-mm lateral to the right bregma. A microsyringe (Hamilton 1700 series) containing 5×10^4 U87-MG cells suspended in 5 µL of medium at 37 °C was advanced to a depth of 4 mm into the brain. The cells were injected at a rate of 3 µL/ min. Bone wax was used to fill the burr hole to prevent cell suspension reflux. The incision was sutured, and 1 mL of Meloxicam (5 mg/mL; Metacam, Boehringer Ingelheim Vetmedica, Ingelheim, Germany) was administered via a subcutaneous injection.
(§5) Fourteen days after inoculation, tumor development in rats was visualized and confirmed through magnetic resonance imaging (MRI). Rats confirmed to have developed tumors were then distributed into six different groups for treatment. […] 9 days after the final treatment dose, the rats underwent another MRI scan and blood and brain samples were taken under anaesthesia.
Brain tissue samples were fixed in a 10% buffered formaldehyde solution. After fixation, the tissues were processed through graded alcohol and xylene series and embedded in paraffin blocks. Sections of 5 µm thickness were taken from the paraffin blocks at intervals of 50-100 µm. Hematoxylin and eosin staining was performed on these sections to evaluate histopathological changes. Histopathological findings included tumor focus size, necrotic area, vascular proliferation, and cellular proliferation patterns. Tumor focus size was categorized as follows based on the diameter measured with a 4X objective on the microscope: >3500 µm was considered very severe, 3499-2000 µm severe, 1999-1000 µm moderate, 999-500 µm mild, and <500 µm very mild. Necrotic area size was classified based on the diameter of necrosis: >1500 µm as very severe, 1499-1000 µm severe, 999-500 µm moderate, 499-200 µm mild, and <199 µm very mild.

[4] = tested on: GBM xenograft rat model; test: In vivo GBM rat model: MRI analysis of tumor volumes; conditions: GBM rats, 30 mg/kg oral, 5 days; for tumor size: MRI 14th vs 28th day; for antitumor activities, order: ranking
Description: as §3, §4, §5
The anaesthetic was administered via an intraperitoneal route on animals fixed in the supine position with parallel hind limbs. MRI was performed using a 3 Tesla clinical scanner (Magnetom Skyra; Siemens Healthineers, Erlangen, Germany). Rats were placed in the prone position. T2-SPACE (sampling perfection with application-optimized contrast using different flip angle Evolution) sequence was obtained to view the brain in coronal and transverse planes. (TR: 6000 ms, TE: 100 ms, voxel size: 0.5 × 0.5 × 1 mm, 34 slices, slice thickness: 2 mm, slice spacing: 0.6 mm). The volume measurements of brain tumors were performed manually. One radiologist calculated the tumour volume - manually measuring tumour length (L), width (W), and height (H) - and then calculated the tumour volume using the formula 0.5236 × L × W × H (Stuppner S et al., 2020).

Row | SMILES | expressions of H2AX [1] | expressions of Nopio [2] | cellular proliferation / mitosis [3] | tumor focus (description) [3] | vascular proliferation [3] | tumor size [4] | antitumor activities, order [4] | necrotic cells (description) [3] | tumor focus size (grade) [3] | necrosis (grade) [3] | tumor size ([4]; 30 mg/kg)
1 | CC(C)CCOc1ccc2c(c1)CCC(=O)N2 [TR-G002, 6-(isopentyloxy)-3,4-dihydroquinolin-2(1H)-one] | mild | mild | mild | significantly reduced tumor focus | mild | small increase in tumor size | TR-G066> TR-G045> TR-G002>TMZ> TR-G091> TR-G053> TR-G071 |  |  |  | 
2 | O=C1CCc2cc(OS(=O)(=O)c3cccc4ccccc34)ccc2N1 [TR-G045, 2-oxo-1,2,3,4-tetrahydroquinolin-6-yl naphthalene-1-sulfonate] | moderate | moderate | moderate mitosis |  | vascular proliferation in the vicinity of healthy tissue | decrease in tumor size | TR-G066> TR-G045> TR-G002>TMZ> TR-G091> TR-G053> TR-G071 | Necrotic cells were present in the central regions | moderate (1999-1000 µm moderate) |  | 
3 | C=Cc1ccc(COc2ccc3c(c2)CCC(=O)N3)cc1 [TR-G053, 6-((4-vinylbenzyl)oxy)-3,4-dihydroquinolin-2(1H)-one] | severe | severe | intense mitosis around blood vessels | tumor focus including both grey and white matter |  |  | TR-G066> TR-G045> TR-G002>TMZ> TR-G091> TR-G053> TR-G071 |  |  | Severe | 
4 | O=C(COc1ccc2c(c1)CCC(=O)N2)N/N=C/c1cnc(-c2ccc(Cl)cc2)nc1 [TR-G066, (E)-N'-((2-(4-chlorophenyl)pyrimidin-5-yl)methylene)-2-((2-oxo-1,2,3,4-tetrahydroquinolin-6-yl)oxy)acetohydrazide] | very mild | very mild |  | few tumor cells, particularly around blood vessels, rather than a distinct tumor focus shape |  |  | TR-G066> TR-G045> TR-G002>TMZ> TR-G091> TR-G053> TR-G071 |  |  |  | decrease in tumor size; also recorded: reduced the tumor size
5 | C=CCOC(=O)COc1ccc2c(c1)CCC(=O)N2 [TR-G071, Allyl 2-((2-oxo-1,2,3,4-tetrahydroquinolin-6-yl)oxy)acetate] | moderate | moderate | moderate levels of mitosis | expanded tumor focus | moderate |  | TR-G066> TR-G045> TR-G002>TMZ> TR-G091> TR-G053> TR-G071 |  |  | moderate (999-500 µm moderate) | 
6 | COc1cc(NC(=O)COc2ccc3c(c2)CCC(=O)N3)cc(OC)c1 [TR-G091, N-(3,5-dimethoxyphenyl)-2-((2-oxo-1,2,3,4-tetrahydroquinolin-6-yl)oxy)acetamide] | moderate | moderate |  | extended tumor focus encompassing both grey and white matter |  |  | TR-G066> TR-G045> TR-G002>TMZ> TR-G091> TR-G053> TR-G071 |  |  | Moderate | 
